The term EC50 denotes the concentration needed to bring the measured effect to its halfway point.

Assay [1] addresses T1, trypsin-like activity of rabbit muscle 20S proteasome (Oryctolagus cuniculus, UniProt G1SWK8).
T1 construct: EC50 Trypsin-like; other: purified rabbit 20S proteasome, Boc-LRR-AMC; other: under the conditions tested
T1 sequence (G1SWK8 1-271): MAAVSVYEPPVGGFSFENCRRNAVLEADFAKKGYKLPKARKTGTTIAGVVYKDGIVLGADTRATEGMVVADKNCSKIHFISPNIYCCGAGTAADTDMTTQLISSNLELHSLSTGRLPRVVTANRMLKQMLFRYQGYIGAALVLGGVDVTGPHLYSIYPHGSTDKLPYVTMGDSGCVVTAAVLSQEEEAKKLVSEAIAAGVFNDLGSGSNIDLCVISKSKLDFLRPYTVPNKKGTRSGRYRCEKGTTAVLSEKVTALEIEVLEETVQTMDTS
In words: In vitro inhibition of 20S proteasome, Boc-LRR-AMC. It counts as biochemical. The note with it: under the conditions tested.

For assay [2], the target named is caspase-like (PGPH) activity of rabbit muscle 20S proteasome (Oryctolagus cuniculus, UniProt A0A5F9DQW2). In words: In vitro inhibition of 20S proteasome, Z-LLE-AMC. The note with it: purified rabbit 20S proteasome, Z-LLE-AMC.
Chain of caspase-like (PGPH) activity of rabbit muscle 20S proteasome (A0A5F9DQW2 1-212): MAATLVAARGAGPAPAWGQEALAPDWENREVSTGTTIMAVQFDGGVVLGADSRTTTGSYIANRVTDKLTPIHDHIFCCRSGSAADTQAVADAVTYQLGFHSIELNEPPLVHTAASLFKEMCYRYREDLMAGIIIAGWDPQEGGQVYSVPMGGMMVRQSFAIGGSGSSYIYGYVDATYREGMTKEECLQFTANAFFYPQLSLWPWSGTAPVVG
The subject of assay [3] is NF-κB-mediated luciferase activity in HEK293 NF-κB/Luc cells. The assay is described as follows: NF-κB-mediated luciferase reporter gene assay. The assay is classed as cell-based, human. The settings on record: for luciferase activity upon TNF-α stimulation: pretreatment of NF-κB/Luc 293 cells; for EC50: Homo sapiens, HEK293, 1 h pretreatment, 6 h TNF-α stimulation, read-out: EC50. As for the experimental part:
The HEK293 NF-κB/luciferase reporter cell line is a derivative of the human embryonic kidney cell line (ATCC; CRL-1573) and carries a luciferase reporter gene under the regulation of 5×NF-κB binding sites. […] When performing the luciferase assay, the DMEM basal medium was replaced with phenol-red free DMEM basal medium and the G418 was omitted.
For NF-κB-mediated luciferase assays, HEK293 NF-κB/luciferase cells were seeded at 1.5×10^4 cells/well in 90 μl phenol-red free DMEM complete medium into Corning 3917 white opaque-bottom tissue culture plates. For Formulae II-2, II-4, II-5A and II-18, a 400 μM starting dilution was made in 100% DMSO and this dilution was used to generate an 8-point half log dilution series. […] For formula II-20, a 2.5 mM or 8 mM starting dilution was made in 100% DMSO and the final test concentrations ranged from 6.3 μM to 2.0 nM or 20 μM to 6.3 nM respectively. The plates were returned to the incubator for 1 hour. After 1 hr pretreatment, 10 μl of a 50 ng/ml TNF-α solution, prepared in the phenol-red free DMEM medium was added, and the plates were incubated for an additional 6 hours.
At the end of the TNF-α stimulation, 100 μl of Steady Lite HTS luciferase reagent (Packard Bioscience) was added to each well and the plates were left undisturbed for 10 min at room temperature before measuring the luciferase activity. The relative luciferase units (RLU) were measured by using a Fusion microplate fluorometer (Packard Bioscience).
NF-κB inducible luciferase activity was measured at 6 hours.
For orientation: A reporter such as luciferase makes a cellular process visible.

Assay [4] deals with T2, chymotrypsin-like activity of rabbit muscle 20S proteasome (Oryctolagus cuniculus, UniProt G1T4Q9).
T2 sequence (G1T4Q9 1-263): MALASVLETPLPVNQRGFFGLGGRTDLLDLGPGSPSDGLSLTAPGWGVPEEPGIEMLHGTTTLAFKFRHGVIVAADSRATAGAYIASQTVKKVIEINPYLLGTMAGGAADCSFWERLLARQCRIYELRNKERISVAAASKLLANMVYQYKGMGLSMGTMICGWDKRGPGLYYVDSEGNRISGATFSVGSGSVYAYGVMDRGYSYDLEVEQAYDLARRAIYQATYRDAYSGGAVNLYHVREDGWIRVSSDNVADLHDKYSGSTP
The assay is described as follows: In vitro inhibition of 20S proteasome, suc-LLVY-AMC.

The subject of assay [5] is 20S proteasome chymotrypsin-like activity in RPMI 8226 cells. The assay is described as follows: Chymotrypsin-like activity of 20S proteasomes in treated cells. It counts as cell-based, human. The settings on record: 1 hr, mean ± SD, n = 3. As for the experimental part: RPMI 8226 (ATCC, CCL-155), the human multiple myeloma cell line, was cultured in RPMI 1640 medium supplemented with 2 mM L-glutamine, 100 units/ml penicillin, 100 μg/ml streptomycin, 1 mM sodium pyruvate and 10% heat inactivated fetal bovine serum at 37° C., 5% CO2 and 95% humidified air. […] DMSO was used as the vehicle control at a final concentration of 0.1%. Following 1 hr incubation of RMPI 8226 cells with the compounds, the cells were pelleted by centrifugation at 2,000 rpm for 10 sec at room temperature and washed 3× with ice-cold 1×Dulbecco's Phosphate-Buffered Saline (DPBS, Mediatech, Herndon, Va.). DPBS washed cells were lysed on ice for 15 min in lysis buffer (20 mM HEPES, 0.5 mM EDTA, 0.05% Triton X-100, pH 7.3) supplemented with protease inhibitor cocktail (Roche Diagnostics, Indianapolis, Ind.). Cell debris was pelleted by centrifugation at 14,000 rpm for 10 min, 4° C. and supernatants (=cell lysates) were transferred to a new tube. Protein concentration was determined by the BCA protein assay kit (Pierce Biotechnology, Rockford, Ill.). […] The total amount of protein used for each assay was 20 μg. The final concentration of Suc-LLVY-AMC and DMSO was 20 μM and 0.2%, respectively.

The subject of assay [6] is RPMI 8226. The assay is described as follows: Cell growth inhibition, resazurin, 48 h. The settings on record: Homo sapiens, RPMI-8226, 48 h, RPMI 8226, 48 h drug exposure. As for the experimental part:
RPMI 8226 (CCL-155), HT-29 (HTB-38), and B16-F10 (CRL-6475) cells were purchased from ATCC. RPMI 8226 cells were maintained in RPMI 1640 media supplemented with 10% (v/v) FBS, 2 mM L-glutamine, 1 mM sodium pyruvate and Penicillin/Streptomycin at 100 IU/ml and 100 μg/ml, respectively. HT-29 cells were maintained in McCoys 5A supplemented with 10% (v/v) FBS, 2 mM L-glutamine, 1 mM sodium pyruvate, 1% (v/v) non-essential amino acids, 10 mM HEPES and Penicillin/Streptomycin at 100 IU/ml and 100 μg/ml, respectively. B16-F10 cells were maintained in DMEM supplemented with 10% (v/v) FBS, 2 mM L-glutamine, 10 mM HEPES and Penicillin/Streptomycin at 100 IU/ml and 100 μg/ml, respectively.
RPMI 8226 cells were seeded at 2×10^4 cells/well in 90 μl RPMI media containing 10% (v/v) FBS or 1% (v/v) FBS into 96 well black-walled, clear-bottom tissue culture plates. […] Formulae II-16, II-17 and Formula II-18 were serially diluted in media containing 1% or 10% FBS and added in triplicate to the test wells. […] The final concentration of Formula II-18 ranged from 2 μM to 630 pM.

The subject of assay [7] is U266. The assay is described as follows: Cell growth inhibition, resazurin, 48 h. The settings on record: U266, 48 h drug exposure. The assay is classed as cell-based, human.
[8] abbreviates: read-out: EC50 Caspase-like (PGPH).

Molecules are shown by their SMILES. “And” between values parts separate entries of the source, which are not always exact repeats. Equal values may be shown once. Read-outs that look alike come from different tables or passages of the source.

Turning to `CC12OC(=O)C1(C(=O)C1C=CCCC1)NC(=O)C2CCCl` (stereo not drawn) [Formula II-13C], in assay [1], the “inhibition of the trypsin-like activity of the 20S proteasome” value (shortened to “inhibition … of the 20S proteasome”) is on record as “able to inhibit the trypsin-like activity”. In assay [2] (read-out: EC50 Caspase-like), the EC50 was above 20000 nM.
For `C[C@@H]1C(=O)N[C@@]2([C@@H](O)[C@@H]3C=CCCC3)C(=O)O[C@@]12C` [Formula II-28], the EC50 in assay [2] (read-out: EC50 Caspase-like) was above 20000 nM.
In the case of `C[C@@]12OC(=O)[C@]1([C@@H](O)[C@@H]1C=CCCC1)NC(=O)[C@H]2CCCl` [Formula II-26], the “inhibition … of the 20S proteasome” value in assay [1] is listed as “able to inhibit the trypsin-like activity”. The “luciferase activity upon TNF-α stimulation” value in assay [3] is on record as “dose-dependent decrease of luciferase activity”.
`C[C@@]12OC(=O)[C@]1(C(=O)C1=CC(O)CCC1)NC(=O)[C@]2(C)CCCl` (stereo partly drawn) [Formula II-31] gave an EC50 in assay [4] above 20000 nM.
For `CC[C@@]12OC(=O)[C@]1([C@@H](O)[C@@H]1C=CCCC1)NC(=O)[C@@H]2CCCl` [Formula II-24C], the “inhibition … of the 20S proteasome” value in assay [1] is listed as “able to inhibit the trypsin-like activity”. Also, in assay [3], the “luciferase activity upon TNF-α stimulation” value is “dose-dependent decrease of luciferase activity”. Besides, the EC50 was above 20000 nM in assay [2] (read-out: EC50 Caspase-like) and 2200 nM in assay [4] (read-out: EC50 Chymotrypsin-like, purified rabbit 20S proteasome, suc-LLVY-AMC).
For the compound `CC(C)[C@H](O)[C@@]12NC(=O)[C@H](C)[C@@H]1OC2=O` [Omuralide, reference compound], the “% inhibition of the chymotrypsin-like activity of 20S proteasomes in RPMI 8226 cell lysates” value in assay [5] (1 nM) was determined as 5 ± 9%; in assay [5] (5 nM), 8 ± 9%; in assay [5] (10 nM), 4 ± 9%; in assay [5] (50 nM), 17 ± 11%; in assay [5] (100 nM) it was 32±8%; in assay [5] (500 nM) it was 68 ± 11%. In addition, the figures for the “% inhibition of the chymotrypsin-like activity of 20S proteasomes in RPMI 8226 cell lysates” value in assay [5] (1,000 nM) and in assay [5] (10,000 nM) were 80 ± 8% and 93 ± 1%, respectively.
For `CCC[C@H]1C(=O)N[C@@]2([C@@H](O)[C@@H]3C=CCCC3)C(=O)O[C@@]12C` [Formula II-30], in assay [1], the “inhibition … of the 20S proteasome” value is recorded as “able to inhibit the trypsin-like activity”. The “luciferase activity upon TNF-α stimulation” value in assay [3] is listed as “dose-dependent decrease of luciferase activity”. Further, the EC50 stood at 956 nM in assay [2] (setting [8]) and 1300 nM in assay [2] (read-out: EC50 Caspase-like).
As for `C[C@@]12OC(=O)[C@]1([C@H](O)[C@@H]1C=CCCC1)NC(=O)[C@@H]2CCCl` [Formula II-25], the EC50 in assay [6] was above 20000 nM; in assay [7] (Homo sapiens, U-266, 48 h), above 20000 nM; in assay [3], above 20000 nM.
For `C[C@@]12OC(=O)[C@]1([C@@H](O)[C@@H]1C=CCCC1)NC(=O)[C@@H]2CCO` [Formula II-21], the “inhibition … of the 20S proteasome” value in assay [1] was “able to inhibit the trypsin-like activity”. In addition, the “luciferase activity upon TNF-α stimulation” value in assay [3] is on record as “dose-dependent decrease of luciferase activity”. Further, the EC50 was 2580 nM and 2330 nM in assay [2] (setting [8]); 2300 nM in assay [2] (read-out: EC50 Caspase-like).
Consider `C[C@@]12OC(=O)[C@]1([C@@H](O)[C@H]1CCC[C@H](Cl)[C@H]1O)NC(=O)[C@@H]2CCCl` [Formula IV-3C], for which the EC50 in assay [6] is above 20000 nM; in assay [7] (Homo sapiens, U-266, 48 h, read-out: EC50), 7760 nM; in assay [7] (read-out: EC50), 8290 nM; in assay [3], above 20000 nM; in assay [2] (read-out: EC50 Caspase-like), above 20000 nM.
Consider `C[C@@]12OC(=O)[C@]1([C@@H](O)[C@@H]1C=CCCC1)NC(=O)[C@@H]2CCN=[N+]=[N-]` [Formula II-29], for which, in assay [1], the “inhibition … of the 20S proteasome” value is “able to inhibit the trypsin-like activity”. For the same compound, the “luciferase activity upon TNF-α stimulation” value in assay [3] was “dose-dependent decrease of luciferase activity”. In addition, the EC50 in assay [2] (setting [8]) was 535 nM and 520 nM.
As to `CCC(=O)OCC[C@H]1C(=O)N[C@@]2([C@@H](O)[C@@H]3C=CCCC3)C(=O)O[C@@]12C` [Formula II-22], the “inhibition … of the 20S proteasome” value in assay [1] was “able to inhibit the trypsin-like activity”. For the same compound, the “luciferase activity upon TNF-α stimulation” value in assay [3] is given as “dose-dependent decrease of luciferase activity”. For the same compound, in assay [2] (read-out: EC50 Caspase-like), the EC50 worked out at 1400 nM.
With `COC(=O)CCSC(=O)[C@]1([C@@H](O)[C@@H]2C=CCCC2)NC(=O)[C@H](CCCl)[C@]1(C)O` [Formula II-44], the “inhibition … of the 20S proteasome” value in assay [1] is “able to inhibit the trypsin-like activity”. In assay [3], the “luciferase activity upon TNF-α stimulation” value was “dose-dependent decrease of luciferase activity”. Moreover, the EC50 in assay [2] (read-out: EC50 Caspase-like) came out at 1400 nM.
Take `COC(=O)CCSC(=O)C1(C(O)C2C=CCCC2)NC(=O)C2CCOC21C` (stereo not drawn) [Formula VI-1A]: the “inhibition … of the 20S proteasome” value in assay [1] is reported as “able to inhibit the trypsin-like activity”. Further, the EC50 in assay [2] (read-out: EC50 Caspase-like) is 7900 nM and 8700 nM.

The values above are taken from patent US7572606B1 (Nereus Pharmaceuticals, Inc., priority 2005, dated 2009).
